Measured values taken from patent publication US20220249586A1, “HEMP EXTRACT AND METHODS OF USE THEREOF” (ElleVet Sciences, priority 2019, published 2022).
“And” between values parts separate entries of the source, which are not always exact repeats. Equal values may be shown once.

How the values were obtained:
[1] = Single-dose oral pharmacokinetics of CBD oil in beagles (serum CBD by LC-MS); assay type: in vivo; settings: male, beagle, dog, median of 4 dogs, read-out: T½ elim (converted)
Procedure: An initial investigation into single-dose oral pharmacokinetics was performed with 4 beagles (3.5-7 years, male castrated, 10.7-11.9 kg). Each dog received a 2 mg/kg and an 8 mg/kg oral dosage of CBD oil, with a 2-week washout period between each experiment. The dogs were fed two hours after dosing. Physical examination was performed at 0, 4, 8 and 24 hours after dosing. Attitude, behavior, proprioception, and gait were subjectively evaluated at each time point during free running/walking and navigation around standard traffic cones (weaving). Five ml of blood was collected at time 0, 0.5, 1, 2, 4, 8, 12 and 24 hours after oil administration. Blood samples were obtained via jugular venipuncture and transferred to a coagulation tube for 20 minutes. […]
From the UHPLC-QQQ-MS data, peak areas were extracted for CBD detected in biological samples and normalized to the peak area of the internal standard CBD-d3, in each sample using Skyline as well as an in-house R Script (www.r-project.org). CBD concentrations were calculated to nanograms per mL of serum as determined by the line of regression of the standard curve (r2=0.9994, 0-1000 ng/mL). For this assay, the limits of detection (LOD) and limits of quantification (LOQ) represent the lower limits of detection and quantification for each compound in the matrix of this study. […]

[2] = Feline pharmacokinetics (cannabidiol in serum by LC-MS/MS); assay type: in vivo, cat; set-up: AUC 0 −> t: concentration or dose not given beside the values
Procedure: On the first day of dosing, blood was collected for a PK analysis from 6 of the 8 cats. The most cooperative cats were selected for the PK analysis. […] Samples were placed into a red top clotting tube with no serum separator. […] The harvested serum was placed in cyrovials stored at −70° C. Each tube was labeled with the cat id, date of collection and collection time point. Samples were shipped overnight on dry ice to the Proteomics & Metabolomics Facility at Colorado State University.
200 μL of cold (−20 C) 100% Acetonitrile (spiked with 60 ng/mL of d3-CBD) was added to each sample and vortexed at room temperature for 5 minutes. 200 μL of water was added and vortexed for an additional 5 minutes. 1 ml of 100% hexane was then added to each sample and vortexed for a final 5 minutes. […] The upper hexane layer was transferred to new-labeled glass vials (˜900 uL per sample), carefully avoiding the middle and lower layers.
An 8 point standard curve of CBD was generated in matrix background using a blank serum. Concentrations ranged from 0 ng/mL 1000 ng/mL (3.2× dilution series). 50 uL of each spiked serum sample was extracted as above.
LC-MS/MS was performed on a Waters Acquity M-Class UPLC coupled to a Waters Xevo TQ-S triple quadrupole mass spectrometer. […] Flow rate was 3.0 μL/min and injection volume was 2.0 μL. […]
Each target analyte was visually inspected for retention time and peak area integration. Peak areas were extracted for target compounds detected in biological samples and normalized to the peak area of the appropriate internal standard in each sample using in-house R Script (TQS-tools). CBD concentrations were calculated in nanograms per milliliter of extract (0.06 mL) and then back calculated to nanograms per mL of serum (0.05 mL of serum).
LOD are calculated based on the standard deviation of the response (Sy) of the 0 point calibration standard (i.e., 0 ng/mL CBD as an estimate on noise) and the slope of the calibration curve (S) at levels approximating the LOD according to the formula: LOD=^3*(Sy/S). […]

SMILES: C=C(C)[C@@H]1CCC(C)=C[C@H]1c1c(O)cc(CCCCC)cc1O [Cannabidiol, cannabidiol]
- half-life ([1]; 2 mg/kg single oral dose): 252 min
- half-life ([1]; 8 mg/kg single oral dose): 252 min
- AUC 0 −> t ([2]; individual cats, 0 time to last collection [24 hr]): 265.0 ng·h/mL and 54.2 ng·h/mL and 42.4 ng·h/mL and 212.2 ng·h/mL and 125.0 ng·h/mL and 134.2 ng·h/mL and 60.2 ng·h/mL
- Cmax ([2]; serum, po, 2 mg/kg): 47.6 ng/mL
- half-life ([2]; serum, po, 2 mg/kg, individual cats, oral 2/mg/kg cannabidiol in capsule form, read-out: T½ el (converted)): 72 min
